Results reported in PubChem BioAssay AID1259408 (Genetic Toxicology Data Bank (GENE-TOX), 2018).
Active and inactive are the calls of the source. No rule for the calls is given here.

System: GENE-TOX genotoxicity assays, various organisms and cells
Assay: GENE-TOX mutagenicity studies
Description: GENE-TOX provides genetic toxicology (mutagenicity) test data from expert peer review of open scientific literature for more than 3,000 chemicals from the United States Environmental Protection Agency (EPA). GENE-TOX was established to select assay systems for evaluation, review data in the scientific literature, and recommend proper testing protocols and evaluation procedures for these systems.
GENE-TOX covers the years 1991 - 1998. It is no longer updated.
This is an archive assay for GENE-TOX mutagenicity studies.

[1] = Species/Cell Type: Salmonella typhimurium (one or more of the five standard strains: TA98, TA100, TA1535, TA1537, and TA1538), Assay Type: Histidine reverse gene mutation, Ames assay, Assay Code: SALT, Evaluation Type: Evaluation A (Pre-1980)
[2] = Species/Cell Type: Saccharomyces cerevisiae, Assay Type: Mitotic recombination or gene conversion, Assay Code: YEC+, Evaluation Type: Evaluation A (Pre-1980)
[3] = Species/Cell Type: Saccharomyces cerevisiae, Assay Type: Reverse gene mutation, Assay Code: YER+, Evaluation Type: Evaluation A (Pre-1980)
[4] = Species/Cell Type: Salmonella typhimurium (one or more of the five standard strains: TA98, TA100, TA1535, TA1537, and TA1538), Assay Type: Histidine reverse gene mutation, Ames assay, Assay Code: SAL+, Evaluation Type: Evaluation A (Pre-1980)
[5] = Species/Cell Type: Drosophila melanogaster, Assay Type: Sex-linked recessive lethal gene mutation, Assay Code: SRLT, Evaluation Type: Evaluation A (Pre-1980)

CN(CCCCO)N=O
mutagenic call [1]: no conclusion

NC(Cc1ccc(F)cc1)C(=O)O (centres undefined)
mutagenic call (Species/Cell Type: Aspergillus nidulans, Assay Type: Aneuploidy, chromosome aberrations, Assay Code: ASN+, Evaluation Type: Evaluation A (Pre-1980)): active; positive | mutagenic call (Species/Cell Type: Aspergillus nidulans, Assay Type: Mitotic recombination, Assay Code: ASG-, Evaluation Type: Evaluation A (Pre-1980)): inactive; negative | mutagenic call (Species/Cell Type: Neurospora crassa, Assay Type: Aneuploidy, chromosome aberrations, Assay Code: NEN+, Evaluation Type: Evaluation A (Pre-1980)): active; positive | mutagenic call (Species/Cell Type: Saccharomyces cerevisiae, Assay Type: Aneuploidy, chromosome aberrations, Assay Code: YEN+, Evaluation Type: Evaluation A (Pre-1980)): active; positive | mutagenic call (Species/Cell Type: Saccharomyces cerevisiae, Assay Type: Forward gene mutation, Assay Code: YEF+, Evaluation Type: Evaluation A (Pre-1980)): active; positive | mutagenic call [2]: active; positive | mutagenic call [3]: active; positive

CN(N=O)C(=O)c1ccccc1
mutagenic call [4]: active; positive

O=c1[nH]c(=O)c2[nH]cnc2[nH]1
mutagenic call [5]: no conclusion

COC(=O)COc1ccc(Br)cc1CSC(=N)N
mutagenic call (Species/Cell Type: Saccharomyces cerevisiae, Assay Type: Reverse gene mutation, Assay Code: YERT, Evaluation Type: Evaluation A (Pre-1980)): no conclusion

Cc1c2ccccc2c(C)c2c1ccc1cccc(C)c12
mutagenic call (Species/Cell Type: Chinese hamster lung (V79) cells, Assay Type: Forward gene mutation at the HPRT or ouabain locus, Assay Code: V79-*, Activation: With metabolic activation, Evaluation Type: Evaluation A (Pre-1980)): inactive; negative

CCNC(=O)N(CC)N=O
mutagenic call (Species/Cell Type: Zea mays (corn), Assay Type: Gene mutation, Assay Code: ZEM+D, Dose Response: With dose response, Evaluation Type: Evaluation A (Pre-1980)): active; positive

O=C(O)CNCP(=O)(O)O
mutagenic call (Species/Cell Type: Human lymphocytes, Assay Type: Sister-chromatid exchange (SCE) in vitro, Assay Code: SCL+, Evaluation Type: Evaluation B (Post-1980)): active; positive | mutagenic call (Species/Cell Type: Human, Assay Type: Sister-chromatid exchange (SCE) in vitro, Assay Code: SC1+, Evaluation Type: Evaluation B (Post-1980)): active; positive

CN1CCC(=C2c3ccccc3C3OC3c3ccccc32)CC1 (centres undefined)
mutagenic call [1]: no conclusion

CC(=O)c1cc([N+](=O)[O-])c[nH]1
mutagenic call [1]: no conclusion

O=[N+]([O-])c1ccc(-c2csc(Cl)n2)o1
mutagenic call (Species/Cell Type: Escherichia coli WP2, Assay Type: Tryptophan reverse gene mutation, Assay Code: WP2+, Evaluation Type: Evaluation A (Pre-1980)): active; positive | mutagenic call (Species/Cell Type: Escherichia coli WP2 UVRA, Assay Type: Tryptophan reverse gene mutation, Assay Code: WPU+, Evaluation Type: Evaluation A (Pre-1980)): active; positive

Cn1c(=O)c2c([nH]c(=O)n2C)n(C)c1=O
mutagenic call (Species/Cell Type: Allium cepa, Assay Type: Chromosome aberrations, Assay Code: ALC-, Evaluation Type: Evaluation A (Pre-1980)): inactive; negative

Nc1cccc2cccnc12
mutagenic call [5]: no conclusion | mutagenic call (Species/Cell Type: Saccharomyces cerevisiae, Assay Type: Forward gene mutation, Assay Code: YEF-*, Activation: With metabolic activation, Evaluation Type: Evaluation A (Pre-1980)): inactive; negative | mutagenic call (Species/Cell Type: Saccharomyces cerevisiae, Assay Type: Mitotic recombination or gene conversion, Assay Code: YEC-*, Activation: With metabolic activation, Evaluation Type: Evaluation A (Pre-1980)): inactive; negative | mutagenic call (Species/Cell Type: Saccharomyces cerevisiae, Assay Type: Mitotic recombination or gene conversion, Assay Code: YEH-*, Activation: With metabolic activation, Evaluation Type: Evaluation A (Pre-1980)): inactive; negative | mutagenic call [3]: active; positive | mutagenic call [4]: active; positive

Nc1nc(/C=C/c2ccc([N+](=O)[O-])o2)no1
mutagenic call (Species/Cell Type: Fischer rat embryo (RLV/1706) cells, Assay Type: Cell transformation, viral enhanced, Assay Code: CTR+, Evaluation Type: Evaluation A (Pre-1980)): active; positive | mutagenic call (Species/Cell Type: Neurospora crassa, Assay Type: Forward gene mutation, Assay Code: NEF+, Evaluation Type: Evaluation A (Pre-1980)): active; positive | mutagenic call (Species/Cell Type: Neurospora crassa, Assay Type: Reverse gene mutation, Assay Code: NER+, Evaluation Type: Evaluation A (Pre-1980)): active; positive | mutagenic call [2]: active; positive | mutagenic call (Species/Cell Type: Saccharomyces cerevisiae, Assay Type: Mitotic recombination or gene conversion, Assay Code: YEH+, Evaluation Type: Evaluation A (Pre-1980)): active; positive | mutagenic call [3]: active; positive

CCNC(=S)NCC
call (Species/Cell Type: Nonhuman, Assay Type: In vivo carcinogenicity studies, Assay Code: CCG+L, Evaluation Type: Evaluation A (Pre-1980)): active; positive | mutagenic call (Species/Cell Type: Syrian hamster embryo (SA7/SHE) cells, Assay Type: Cell transformation, viral enhanced, Assay Code: CT7-, Evaluation Type: Evaluation A (Pre-1980)): inactive; negative
